Experimental data as given in the NIST ThermoML archive (doi:10.1021/acs.jced.6b00396).
± gives the expanded uncertainty stated by the source.

Assay: xn = mol fraction of the nth substance listed
Conditions: Gas, isochoric method

F/C=C(\F)C(F)(F)F [(Z)-1,2,3,3,3-pentafluoro-1-propene] + CCC
Conditions | specific volume [m3/kg]
303.15 K, 459.8 kPa, x2 = 0.855 | 0.09 ± 0.01
303.15 K, 722.5 kPa, x2 = 0.593 | 0.038 ± 0.01
308.15 K, 412.6 kPa, x2 = 0.516 | 0.067 ± 0.01
308.15 K, 468.5 kPa, x2 = 0.855 | 0.09 ± 0.01
308.15 K, 491.5 kPa, x2 = 0.225 | 0.042 ± 0.01
308.15 K, 738.6 kPa, x2 = 0.593 | 0.038 ± 0.01
308.15 K, 946.2 kPa, x2 = 0.69 | 0.032 ± 0.01
313.15 K, 420.3 kPa, x2 = 0.516 | 0.067 ± 0.01
313.15 K, 477.3 kPa, x2 = 0.855 | 0.09 ± 0.01
313.15 K, 501.4 kPa, x2 = 0.225 | 0.042 ± 0.01
313.15 K, 754.6 kPa, x2 = 0.593 | 0.038 ± 0.01
313.15 K, 968.3 kPa, x2 = 0.69 | 0.032 ± 0.01
318.15 K, 428 kPa, x2 = 0.516 | 0.067 ± 0.01
318.15 K, 486 kPa, x2 = 0.855 | 0.09 ± 0.01
318.15 K, 511.5 kPa, x2 = 0.225 | 0.042 ± 0.01
318.15 K, 770.3 kPa, x2 = 0.593 | 0.038 ± 0.01
318.15 K, 990.1 kPa, x2 = 0.69 | 0.032 ± 0.01
323.15 K, 435.7 kPa, x2 = 0.516 | 0.067 ± 0.01
323.15 K, 494.7 kPa, x2 = 0.855 | 0.09 ± 0.01
323.15 K, 521.2 kPa, x2 = 0.225 | 0.042 ± 0.01
323.15 K, 786.1 kPa, x2 = 0.593 | 0.038 ± 0.01
323.15 K, 1011.5 kPa, x2 = 0.69 | 0.032 ± 0.01
328.15 K, 443.4 kPa, x2 = 0.516 | 0.067 ± 0.01
328.15 K, 503.4 kPa, x2 = 0.855 | 0.09 ± 0.01
328.15 K, 531.1 kPa, x2 = 0.225 | 0.042 ± 0.01
328.15 K, 801.7 kPa, x2 = 0.593 | 0.038 ± 0.01
328.15 K, 1033 kPa, x2 = 0.69 | 0.032 ± 0.01
333.15 K, 451 kPa, x2 = 0.516 | 0.067 ± 0.01
333.15 K, 512.1 kPa, x2 = 0.855 | 0.09 ± 0.01
333.15 K, 540.8 kPa, x2 = 0.225 | 0.042 ± 0.01
333.15 K, 817.3 kPa, x2 = 0.593 | 0.038 ± 0.01
333.15 K, 1054.4 kPa, x2 = 0.69 | 0.032 ± 0.01
338.15 K, 458.7 kPa, x2 = 0.516 | 0.067 ± 0.01
338.15 K, 520.9 kPa, x2 = 0.855 | 0.09 ± 0.01
338.15 K, 550.6 kPa, x2 = 0.225 | 0.042 ± 0.01
338.15 K, 832.7 kPa, x2 = 0.593 | 0.038 ± 0.01
338.15 K, 1075.7 kPa, x2 = 0.69 | 0.032 ± 0.01
343.15 K, 466.6 kPa, x2 = 0.516 | 0.067 ± 0.01
343.15 K, 529.5 kPa, x2 = 0.855 | 0.09 ± 0.01
343.15 K, 560.3 kPa, x2 = 0.225 | 0.042 ± 0.01
343.15 K, 848.1 kPa, x2 = 0.593 | 0.038 ± 0.01
343.15 K, 1096.9 kPa, x2 = 0.69 | 0.032 ± 0.01
348.15 K, 474.1 kPa, x2 = 0.516 | 0.067 ± 0.01
348.15 K, 538.1 kPa, x2 = 0.855 | 0.09 ± 0.01
348.15 K, 570 kPa, x2 = 0.225 | 0.042 ± 0.01
348.15 K, 863.4 kPa, x2 = 0.593 | 0.038 ± 0.01
348.15 K, 1118 kPa, x2 = 0.69 | 0.032 ± 0.01
353.15 K, 481.7 kPa, x2 = 0.516 | 0.067 ± 0.01
353.15 K, 546.7 kPa, x2 = 0.855 | 0.09 ± 0.01
353.15 K, 580.1 kPa, x2 = 0.225 | 0.042 ± 0.01
353.15 K, 878.7 kPa, x2 = 0.593 | 0.038 ± 0.01
353.15 K, 1139.2 kPa, x2 = 0.69 | 0.032 ± 0.01
358.15 K, 489.3 kPa, x2 = 0.516 | 0.067 ± 0.01
358.15 K, 555.3 kPa, x2 = 0.855 | 0.09 ± 0.01
358.15 K, 589.7 kPa, x2 = 0.225 | 0.042 ± 0.01
358.15 K, 893.9 kPa, x2 = 0.593 | 0.038 ± 0.01
358.15 K, 1160 kPa, x2 = 0.69 | 0.032 ± 0.01
363.15 K, 496.8 kPa, x2 = 0.516 | 0.067 ± 0.01
363.15 K, 563.9 kPa, x2 = 0.855 | 0.09 ± 0.01
363.15 K, 909 kPa, x2 = 0.593 | 0.038 ± 0.01
363.15 K, 1180.9 kPa, x2 = 0.69 | 0.032 ± 0.01
363.16 K, 599.3 kPa, x2 = 0.225 | 0.042 ± 0.01

C=C(F)C(F)(F)F [2,3,3,3-tetrafluoro-1-propene] + CCC
Conditions | specific volume [m3/kg]
268.15 K, 333 kPa, x2 = 0.709 | 0.095 ± 0.01
273.15 K, 340.4 kPa, x2 = 0.709 | 0.095 ± 0.01
278.15 K, 347.7 kPa, x2 = 0.709 | 0.095 ± 0.01
278.15 K, 366.9 kPa, x2 = 0.505 | 0.072 ± 0.01
283.15 K, 354.8 kPa, x2 = 0.709 | 0.095 ± 0.01
283.15 K, 374.9 kPa, x2 = 0.505 | 0.072 ± 0.01
288.13 K, 614.2 kPa, x2 = 0.611 | 0.047 ± 0.01
288.15 K, 382.8 kPa, x2 = 0.505 | 0.072 ± 0.01
288.16 K, 362 kPa, x2 = 0.709 | 0.095 ± 0.01
288.16 K, 449 kPa, x2 = 0.23 | 0.048 ± 0.01
293.15 K, 369.3 kPa, x2 = 0.709 | 0.095 ± 0.01
293.15 K, 390.7 kPa, x2 = 0.505 | 0.072 ± 0.01
293.15 K, 459.2 kPa, x2 = 0.23 | 0.048 ± 0.01
293.17 K, 628.3 kPa, x2 = 0.611 | 0.047 ± 0.01
298.15 K, 376.6 kPa, x2 = 0.709 | 0.095 ± 0.01
298.15 K, 398.5 kPa, x2 = 0.505 | 0.072 ± 0.01
298.15 K, 470.2 kPa, x2 = 0.23 | 0.048 ± 0.01
298.15 K, 642.2 kPa, x2 = 0.611 | 0.047 ± 0.01
298.15 K, 807.3 kPa, x2 = 0.839 | 0.047 ± 0.01
303.15 K, 383.9 kPa, x2 = 0.709 | 0.095 ± 0.01
303.15 K, 406.7 kPa, x2 = 0.505 | 0.072 ± 0.01
303.15 K, 479.7 kPa, x2 = 0.23 | 0.048 ± 0.01
303.15 K, 656.1 kPa, x2 = 0.611 | 0.047 ± 0.01
303.15 K, 825.7 kPa, x2 = 0.839 | 0.047 ± 0.01
308.15 K, 391 kPa, x2 = 0.709 | 0.095 ± 0.01
308.15 K, 414.4 kPa, x2 = 0.505 | 0.072 ± 0.01
308.15 K, 489.4 kPa, x2 = 0.23 | 0.048 ± 0.01
308.15 K, 669.8 kPa, x2 = 0.611 | 0.047 ± 0.01
308.15 K, 844 kPa, x2 = 0.839 | 0.047 ± 0.01
313.15 K, 398.2 kPa, x2 = 0.709 | 0.095 ± 0.01
313.15 K, 422.1 kPa, x2 = 0.505 | 0.072 ± 0.01
313.15 K, 499.1 kPa, x2 = 0.23 | 0.048 ± 0.01
313.15 K, 683.5 kPa, x2 = 0.611 | 0.047 ± 0.01
313.15 K, 862.2 kPa, x2 = 0.839 | 0.047 ± 0.01
318.15 K, 405.3 kPa, x2 = 0.709 | 0.095 ± 0.01
318.15 K, 429.8 kPa, x2 = 0.505 | 0.072 ± 0.01
318.15 K, 508.7 kPa, x2 = 0.23 | 0.048 ± 0.01
318.15 K, 697.1 kPa, x2 = 0.611 | 0.047 ± 0.01
318.15 K, 880.3 kPa, x2 = 0.839 | 0.047 ± 0.01
323.15 K, 412.4 kPa, x2 = 0.709 | 0.095 ± 0.01
323.15 K, 437.5 kPa, x2 = 0.505 | 0.072 ± 0.01
323.15 K, 518.3 kPa, x2 = 0.23 | 0.048 ± 0.01
323.15 K, 710.9 kPa, x2 = 0.611 | 0.047 ± 0.01
323.15 K, 898.3 kPa, x2 = 0.839 | 0.047 ± 0.01
328.15 K, 419.5 kPa, x2 = 0.709 | 0.095 ± 0.01
328.15 K, 445.3 kPa, x2 = 0.505 | 0.072 ± 0.01
328.15 K, 527.8 kPa, x2 = 0.23 | 0.048 ± 0.01
328.15 K, 724.4 kPa, x2 = 0.611 | 0.047 ± 0.01
328.15 K, 916.2 kPa, x2 = 0.839 | 0.047 ± 0.01
333.15 K, 426.6 kPa, x2 = 0.709 | 0.095 ± 0.01
333.15 K, 452.9 kPa, x2 = 0.505 | 0.072 ± 0.01
333.15 K, 537.3 kPa, x2 = 0.23 | 0.048 ± 0.01
333.15 K, 737.9 kPa, x2 = 0.611 | 0.047 ± 0.01
333.15 K, 934 kPa, x2 = 0.839 | 0.047 ± 0.01
338.15 K, 433.8 kPa, x2 = 0.709 | 0.095 ± 0.01
338.15 K, 460.5 kPa, x2 = 0.505 | 0.072 ± 0.01
338.15 K, 546.7 kPa, x2 = 0.23 | 0.048 ± 0.01
338.15 K, 751.3 kPa, x2 = 0.611 | 0.047 ± 0.01
338.15 K, 951.8 kPa, x2 = 0.839 | 0.047 ± 0.01
343.15 K, 440.8 kPa, x2 = 0.709 | 0.095 ± 0.01
343.15 K, 468.1 kPa, x2 = 0.505 | 0.072 ± 0.01
343.15 K, 556.2 kPa, x2 = 0.23 | 0.048 ± 0.01
343.15 K, 764.6 kPa, x2 = 0.611 | 0.047 ± 0.01
343.15 K, 969.5 kPa, x2 = 0.839 | 0.047 ± 0.01
348.14 K, 778 kPa, x2 = 0.611 | 0.047 ± 0.01
348.15 K, 447.9 kPa, x2 = 0.709 | 0.095 ± 0.01
348.15 K, 475.6 kPa, x2 = 0.505 | 0.072 ± 0.01
348.15 K, 565.8 kPa, x2 = 0.23 | 0.048 ± 0.01
348.15 K, 987.1 kPa, x2 = 0.839 | 0.047 ± 0.01
353.15 K, 454.9 kPa, x2 = 0.709 | 0.095 ± 0.01
353.15 K, 483.2 kPa, x2 = 0.505 | 0.072 ± 0.01
353.15 K, 575.1 kPa, x2 = 0.23 | 0.048 ± 0.01
353.15 K, 791.3 kPa, x2 = 0.611 | 0.047 ± 0.01
353.15 K, 1004.6 kPa, x2 = 0.839 | 0.047 ± 0.01
358.15 K, 462 kPa, x2 = 0.709 | 0.095 ± 0.01
358.15 K, 490.8 kPa, x2 = 0.505 | 0.072 ± 0.01
358.15 K, 584.5 kPa, x2 = 0.23 | 0.048 ± 0.01
358.15 K, 804.5 kPa, x2 = 0.611 | 0.047 ± 0.01
358.15 K, 1022.2 kPa, x2 = 0.839 | 0.047 ± 0.01
363.15 K, 469 kPa, x2 = 0.709 | 0.095 ± 0.01
363.15 K, 498.3 kPa, x2 = 0.505 | 0.072 ± 0.01
363.15 K, 593.8 kPa, x2 = 0.23 | 0.048 ± 0.01
363.15 K, 817.7 kPa, x2 = 0.611 | 0.047 ± 0.01
363.16 K, 1039.6 kPa, x2 = 0.839 | 0.047 ± 0.01
